Among the data in patent publication US12534452B2, “N-(1H-imidazol-2-yl)benzamide compound and pharmaceutical composition comprising the same as active ingredient” (KAINOS MEDICINE, INC., priority 2019, dated 2026) are IC50 values, retold here.

Broadly, the IC50 is the concentration at which inhibition is half-maximal. Lower therefore signals greater potency in that assay.

Structures are written as SMILES. A value given as a limit tells only on which side of the number the result lay.

In this experiment the target is IRAK4 (Homo sapiens (Human), UniProt Q9NWZ3). In words: In vitro IRAK4 phosphorylation activity assay. It counts as biochemical. Particulars: [γ-33P]-ATP, myelin basic protein substrate, 40 minutes at room temperature; categories. As for the experimental part: In vitro IRAK4 analysis was performed using N-(1H-imidazol-2-yl)benzamide compounds according to the present invention. All compounds were prepared by dissolving in DMSO. N-(1H-imidazol-2-yl)benzamide compound according to the present invention and other elements for the reaction were added to an assay well. In the standard Kinase Profiler service the preincubation step between the N-(1H-imidazol-2-yl)benzamide compound and kinase was not performed before the reaction.
Chain of IRAK4 (Q9NWZ3 whole entry): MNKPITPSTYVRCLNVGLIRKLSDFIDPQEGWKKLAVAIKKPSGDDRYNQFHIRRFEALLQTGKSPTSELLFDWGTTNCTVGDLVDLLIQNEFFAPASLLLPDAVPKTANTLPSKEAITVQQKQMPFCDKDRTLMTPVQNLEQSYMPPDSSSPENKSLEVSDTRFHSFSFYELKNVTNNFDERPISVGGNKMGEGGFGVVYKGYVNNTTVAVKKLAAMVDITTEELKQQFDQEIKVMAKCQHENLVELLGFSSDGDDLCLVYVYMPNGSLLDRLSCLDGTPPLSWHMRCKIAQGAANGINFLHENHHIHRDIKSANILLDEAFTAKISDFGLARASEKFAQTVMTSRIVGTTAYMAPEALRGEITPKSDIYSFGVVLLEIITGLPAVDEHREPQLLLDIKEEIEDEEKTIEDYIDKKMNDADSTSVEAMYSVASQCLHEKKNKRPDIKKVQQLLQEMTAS
To the positive control well, all reactants except for the N-(1H-imidazol-2-yl)benzamide compound according to the present invention were added, and DMSO was added to remove the solvent effect. A known control inhibitor having the following structure was added to the blank wells to inhibit kinase activity and establish a base-line.
IRAK4 was incubated with 8 mM MOPS pH 7.0, 0.2 mM EDTA, 0.33 mg/mL myelin basic protein, 10 mM magnesium acetate and [γ-33P]-ATP (specific activity approx. 500 cpm/pmol, concentration as required). The reaction was initiated by the addition of the MgATP mix. After incubation for 40 minutes at room temperature, the reaction was stopped by the addition of 3% phosphoric acid solution. 10 μL of the reaction was then spotted onto a P30 filtermat and washed three times for 5 minutes in 75 mM phosphoric acid and once in methanol prior to drying and scintillation counting.
The results are shown in Table 26 below, where the phosphorylation activity of IC50 values for IRAK4 is shown in categories (A: <50 nM, B: 50-100 nM, C: >100 nM).
On to `C[C@@H]1CCCCN1C(=O)CCc1cn(-c2ccccc2)c(NC(=O)c2cccc(-c3cn[nH]c3)c2)n1` [Example 30, (R)—N-(4-(3-(2-methylpiperidin-1-yl)-3-oxopropyl)-1-phenyl-1H-imidazol-2-yl)-3-(1H-pyrazol-4-yl)benzamide], for which the IC50 was under 0.05 µM.
Next, `C[C@H]1CCCCN1C(=O)CCc1cn(-c2ccccc2)c(NC(=O)c2cccc(-c3cn[nH]c3)c2)n1` [Example 31, (S)—N-(4-(3-(2-methylpiperidin-1-yl)-3-oxopropyl)-1-phenyl-1H-imidazol-2-yl)-3-(1H-pyrazol-4-yl)benzamide]: 0.05 to 0.1 µM; `C[C@@H]1CCC[C@H](C)N1C(=O)CCc1cn(-c2ccccc2)c(NC(=O)c2cccc(-c3cn[nH]c3)c2)n1` [Example 32, N-(4-(3-((2R,6S)-2,6-dimethylpiperidin-1-yl)-3-oxopropyl)-1-phenyl-1H-imidazol-2-yl)-3-(1H-pyrazol-4-yl)benzamide]: under 0.05 µM.
For `CNC(=O)CCc1cn(-c2ccccc2)c(NC(=O)c2cccc(-c3cn[nH]c3)c2)n1` [Example 33, N-(4-(3-(methylamino)-3-oxopropyl)-1-phenyl-1H-imidazol-2-yl)-3-(1H-pyrazol-4-yl)benzamide], the IC50 was under 0.05 µM.
In turn, `CC1(C)CCCN(C(=O)CCc2cn(-c3ccccc3)c(NC(=O)c3cccc(-c4cn[nH]c4)c3)n2)C1` [Example 34, N-(4-(3-(3,3-dimethylpiperidin-1-yl)-3-oxopropyl)-1-phenyl-1H-imidazol-2-yl)-3-(1H-pyrazol-4-yl)benzamide] had an IC50 of under 0.05 µM.
As for `CC1(C)CCN(C(=O)CCc2cn(-c3ccccc3)c(NC(=O)c3cccc(-c4cn[nH]c4)c3)n2)CC1` [Example 35, N-(4-(3-(4,4-dimethylpiperidin-1-yl)-3-oxopropyl)-1-phenyl-1H-imidazol-2-yl)-3-(1H-pyrazol-4-yl)benzamide], the figure is under 0.05 µM; as for `O=C(Nc1nc(CCC(=O)N2CCCC(C(=O)O)C2)cn1-c1ccccc1)c1cccc(-c2cn[nH]c2)c1` [Example 36, (S)-1-(3-(2-(3-(1H-pyrazol-4-yl)benzamido)-1-phenyl-1H-imidazol-4-yl)propanoyl)piperidine-3-carboxylic acid], under 0.05 µM.
For `O=C(Nc1nc(CCC(=O)N2CCCC[C@H]2C(F)(F)F)cn1-c1ccccc1)c1cccc(-c2cn[nH]c2)c1` [Example 38, (S)—N-(4-(3-oxo-3-(2-(trifluoromethyl)piperidin-1-yl)propyl)-1-phenyl-1H-imidazol-2-yl)-3-(1H-pyrazol-4-yl)benzamide], the IC50 is under 0.05 µM.
For `O=C(Nc1nc(CCC(=O)N2CCCC[C@@H]2C(F)(F)F)cn1-c1ccccc1)c1cccc(-c2cn[nH]c2)c1` [Example 39, (R)—N-(4-(3-oxo-3-(2-(trifluoromethyl)piperidin-1-yl)propyl)-1-phenyl-1H-imidazol-2-yl)-3-(1H-pyrazol-4-yl)benzamide], the 50% inhibitory concentration (IC50) is 0.05 to 0.1 µM.
As for `N[C@@H]1CCCN(C(=O)CCc2cn(-c3ccccc3)c(NC(=O)c3cccc(-c4cn[nH]c4)c3)n2)C1` [Example 40, (R)—N-(4-(3-(3-aminopiperidin-1-yl)-3-oxopropyl)-1-phenyl-1H-imidazol-2-yl)-3-(1H-pyrazol-4-yl)benzamide], the figure is under 0.05 µM; as for `CNC(=O)Cc1cn(-c2ccccc2)c(NC(=O)c2cccc(-c3cn[nH]c3)c2)n1` [Example 41, N-(4-(2-(methylamino)-2-oxoethyl)-1-phenyl-1H-imidazol-2-yl)-3-(1H-pyrazol-4-yl)benzamide], over 0.1 µM.
`COC(=O)Cc1cn(-c2ccccc2)c(NC(=O)c2cccc(-c3cn[nH]c3)c2)n1` [Example 42, methyl 2-(2-(3-(1H-pyrazol-4-yl)benzamido)-1-phenyl-1H-imidazol-4-yl)acetate] registered a half-inhibitory concentration (IC50) of 0.05 to 0.1 µM.
Next, `O=C(O)Cc1cn(-c2ccccc2)c(NC(=O)c2cccc(-c3cn[nH]c3)c2)n1` [Example 43, 2-(2-(3-(1H-pyrazol-4-yl)benzamido)-1-phenyl-1H-imidazol-4-yl)acetic acid]: over 0.1 µM; `COC[C@@H]1CCCN1NC(=O)Cc1cn(-c2ccccc2)c(NC(=O)c2cccc(-c3cn[nH]c3)c2)n1` [Example 44, (S)—N-(4-(2-((2-(methoxymethyl)pyrrolidin-1-yl)amino)-2-oxoethyl)-1-phenyl-1H-imidazol-2-yl)-3-(1H-pyrazol-4-yl)benzamide]: over 0.1 µM.
As for `COC[C@H]1CCCN1NC(=O)Cc1cn(-c2ccccc2)c(NC(=O)c2cccc(-c3cn[nH]c3)c2)n1` [Example 45, (R)—N-(4-(2-((2-(methoxymethyl)pyrrolidin-1-yl)amino)-2-oxoethyl)-1-phenyl-1H-imidazol-2-yl)-3-(1H-pyrazol-4-yl)benzamide], the figure is 0.05 to 0.1 µM.
`COC[C@@H]1CCCN1C(=O)Cc1cn(-c2ccccc2)c(NC(=O)c2cccc(-c3cn[nH]c3)c2)n1` [Example 46, (S)—N-(4-(2-(2-(methoxymethyl)pyrrolidin-1-yl)-2-oxoethyl)-1-phenyl-1H-imidazol-2-yl)-3-(1H-pyrazol-4-yl)benzamide] had an IC50 of 0.05 to 0.1 µM.
Turning to `COC[C@H]1CCCN1C(=O)Cc1cn(-c2ccccc2)c(NC(=O)c2cccc(-c3cn[nH]c3)c2)n1` [Example 47, (R)—N-(4-(2-(2-(methoxymethyl)pyrrolidin-1-yl)-2-oxoethyl)-1-phenyl-1H-imidazol-2-yl)-3-(1H-pyrazol-4-yl)benzamide], the 50% inhibitory concentration (IC50) is over 0.1 µM.
As for `CNC(=O)Cc1cn(-c2ccccc2)c(NC(=O)c2ccc(-c3cn[nH]c3)cc2)n1` [Example 48, N-(4-(2-(methylamino)-2-oxoethyl)-1-phenyl-1H-imidazol-2-yl)-4-(1H-pyrazol-4-yl)benzamide], the figure is over 0.1 µM.
Compound `CNC(=O)Cc1cn(-c2ccccc2)c(NC(=O)c2ccc3[nH]ncc3c2)n1` [Example 49, N-(4-(2-(methylamino)-2-oxoethyl)-1-phenyl-1H-imidazol-2-yl)-1H-indazole-5-carboxamide] showed a half-maximal inhibitory concentration (IC50) of over 0.1 µM.
As for `CNC(=O)Cc1cn(-c2ccccc2)c(NC(=O)c2ccccc2)n1` [Example 50, N-(4-(2-(methylamino)-2-oxoethyl)-1-phenyl-1H-imidazol-2-yl)benzamide], the figure is over 0.1 µM; as for `CNC(=O)Cc1cn(-c2ccccc2)c(NC(=O)c2cccnc2)n1` [Example 51, N-(4-(2-(methylamino)-2-oxoethyl)-1-phenyl-1H-imidazol-2-yl)nicotinamide], over 0.1 µM; as for `O=C(CCCc1cn(-c2ccccc2)c(NC(=O)c2cccc(-c3cn[nH]c3)c2)n1)Nc1ccccc1` [Example 52, N-(4-(4-oxo-4-(phenylamino)butyl)-1-phenyl-1H-imidazol-2-yl)-3-(1H-pyrazol-4-yl)benzamide], under 0.05 µM.
`COC[C@@H]1CCCN1NC(=O)CCCc1cn(-c2ccccc2)c(NC(=O)c2cccc(-c3cn[nH]c3)c2)n1` [Example 53, (S)—N-(4-(4-((2-(methoxymethyl)pyrrolidin-1-yl)amino)-4-oxobutyl)-1-phenyl-1H-imidazol-2-yl)-3-(1H-pyrazol-4-yl)benzamide] showed a half-maximal inhibitory concentration (IC50) of under 0.05 µM.
Next, `COC[C@H]1CCCN1NC(=O)CCCc1cn(-c2ccccc2)c(NC(=O)c2cccc(-c3cn[nH]c3)c2)n1` [Example 54, (R)—N-(4-(4-((2-(methoxymethyl)pyrrolidin-1-yl)amino)-4-oxobutyl)-1-phenyl-1H-imidazol-2-yl)-3-(1H-pyrazol-4-yl)benzamide]: under 0.05 µM.
